Test results: US20260248799A1, “COMBINATIONS OF RETINALDEHYDE DEHYDROGENASE 1 (RALDH1) INHIBITORS AND IMMUNOSTIMULATORS AND METHODS USING SAME” (The Trustees of the University of Pennsylvania, priority 2023, published 2026)
“Also recorded” adds a separate entry of the source. Like-named read-outs stand apart in the source and are kept apart here. Values belong to the compound of their own block, whether it stands above or below them.

How the values were obtained:
[1] = tested on: murine HCC cell line (Hepa1-6); experiment: AldeRed assay in Hepa1-6 cells; type: cell-based, mouse
Description: Cultures of tumor cells or primary monocyte-derived cells were treated with C86, C91, C99, BMS 493 (Tocris, 3509) or Win 18446 (Tocris, 4736) at a time and concentration indicated in corresponding figure legends.
(§1) The AldeRed assay (EMD Millipore) was performed according to manufacturer's instructions to identify cells with ALDH activity. In brief, single-cell suspensions of Huh7, Huh1, SNU449, SNU398, HEP3B, PLC, Hepa 1-6, Hep55, and AL458A cultured cells or single-cell suspension generated from enzymatic digestion of tumors generated from transplantation of these cells in mice (as indicated in figure legends) were incubated with a fluorescent and non-toxic ALDH substrate (AldeRed 588-A); the fluorescent product accumulates in cells proportional to their ALDH activity. The amount of fluorescence produced is measured by flow cytometry. The ALDH inhibitor diethylaminobenzaldehyde (DEAB, provided with the AldeRed assay kit) was used as a negative control for background fluorescence assessment.

SNU398 human HCC cells = experiment: AldeRed (Aldefluor) assay in SNU398 cells; type: cell-based
Description: as §1
The Aldefluor assay has been used to identify and isolate cells with high ALDH activities. This assay is based on the principle that ALDH can convert the ALDH-substrate, Bodipy-aminoacetaldehyde (BAAA) into Bodipy-aminoacetate (BAA) which is retained inside the cells. BAAA is uncharged and can diffuse freely into intact viable cells, however BAA cannot cross the membrane due to its net negative charge, which makes remain in the cells and the assay buffer prevents efflux of the BAA from the cells. Therefore, the amount of BAA fluorescence in cells is proportional to ALDH activity and can be measured using a flow cytometer. A specific inhibitor of ALDH, diethylaminobenzaldehyde (DEAB), is used for background fluorescence control.

SNU398 cells [2] = experiment: In vitro proliferation and viability of human HCC cell lines; type: cell-based
Description: FIG. 20D: LC-MS for ATRA on Hepa1-6 (mouse HCC cell line) or SNU398 (human HCC cell line). […] Two independent experiments were performed with at least three replicates per experimental group. Unpaired t test, two-tailed. *, P<0.05; **, P<0.01; ***, P<0.001. […] Cell proliferation was measured by counting live cell numbers at each time point. […] Cell proliferation was measured by counting live cell numbers at each time point.
Cell viability was measured by flow cytometry (FCM) with 7-AAD staining (Y-axis indicates percentage of 7-AAD negative cells).
1×10^4~2×10^5 of Huh7, Huh1, Hepa 1-6, and Hep55 tumor cells were plated in triplicate in 48-well plates or 6-well plates. Viable cell numbers were counted every day for three to four days.

[3] = mouse, in vivo
Description: Male CD1 or C57BL/6J mice between 6 and 8 weeks old and weighing approximately 20 to 30 grams were dosed with compound 86, compound 91, and compound 99 at 2 mg/kg (IV), 10 mg/kg (PO), and 10 or 30 mg/kg (IP). The compounds were formulated using a 20% hydroxypropyl-beta-cyclodextrin (HPbCD) solution in saline, was made on the day of dosing or directly prior to dosing. Each treatment group consisted of three mice, and plasma was collected at 5 minutes, 15 minutes, 30 minutes, 1 hour, 2 hours, 4 hours, 8 hours, 12 hours, and 24 hours post-dose for IV administration and at 15 minutes, 30 minutes, 1 hour, 2 hours, 4 hours, 8 hours, 12 hours, and 24 hours post-dose for PO administration. Approximately 0.025 mL of blood was collected from the dorsal metatarsal vein at each time point. […] Plasma samples were then stored in polypropylene tubes, quickly frozen, and kept at −75° C. until analyzed by LC/MS/MS. The following pharmacokinetic parameters were measured: Terminal half-life (T½), Concentration at immediately after injection (C0), Maximum concentration (Cmax), Time to reach max concentration (Tmax), Clearance (CL), Volume of distribution (Vd), Area under the curve (AUClast), and bioavailability (% F). Animals were also monitored during the in-life phase by once daily cage side observations; any adverse clinical signs were noted as part of the PK report.

SNU398 cells [4] = experiment: RT-qPCR of Raldh1, Raldh2 and Raldh3 transcripts in SNU398 cells; type: cell-based, human; details: SNU398, 24 hours
Description: FIG. 21A: Transcript levels (RT-qPCR) of Raldh1, Raldh2 and Raldh3 in SNU398 cells treated with different concentrations of C86 or C91 for 24 hours. FIG. 21B: Homology modeling identifies differences in amino acid residues between human and murine RALDH1 at sites predicted to bind RALDH1-INH. FIG. 21C: SNU398 cells were treated with various concentrations of C86 or C91 for 24 hours. Cell viability was measured by flow cytometry (FCM) with 7-AAD staining (Y-axis indicates percentage of 7-AAD negative cells).
Total RNA from mouse tissue samples and in vitro cultured cells was isolated using GenElute Mammalian Total RNA Miniprep Kit (Sigma) following the manufacturer's protocol. Total RNA from human FFPE samples was isolated by using Quick-RNA FFPE Miniprep Kit (Zymo Research) using the manufacturer's protocol. 1000 ng of RNA was used for reverse transcription using High Capacity RNA to cDNA Kit (Life Technologies). The cDNA product was 10× diluted. 2.5 μL of this cDNA was used for qPCR for each sample. Three or more replicates were used for each reaction. […] Expression fold was calculated as 2^−(CT target gene−CT housekeeping gene). Quantitative PCRs were run on a Viia 7 real time PCR system (ThermoFisher). The following target and housekeeping genes were measured using the commercially available TaqMan probes (ThermoFisher): […]

[5] = Pharmacokinetics IV and PO in CD-1 mice, plasma; type: in vivo; details: mouse plasma
Excerpt: The PK studies were done at NIH or a commercial CRO—Pharmacon using their in-house standard protocol. […] For C99, IV and PO, performed at NIH using CD-1 mice; formulation: 20% HPbCD in saline.

human RALDH isozymes = experiment: IC50 on human RALDH isozymes (FIG. 29A); type: biochemical
Hepa 1-6 tumors = Hepa 1-6 tumors in mice; type: in vivo, mouse
Description: FIGS. 28A-28G: C99 inhibits murine RALDH1 and suppresses murine HCC growth. FIG. 28A: AldeRed assay was performed on Hepa1-6 (murine HCC, left graph) and SNU398 (human HCC, right graph) cells with or without different concentration of C99 (x-axis). Shown is the percentage of AldeRed-positive cells (y-axis) after 24 hours exposure to C99. Murine RALDH1 is sensitive to C99. FIG. 28B: Hepa1-6 cells were treated with different concentrations of C99 in vitro and the number of viable cells were counted at different time points. […] FIG. 28C: C57BL6/J mice were implanted subcutaneously with Hepa1-6 cells and the tumor-bearing mice. To prevent spontaneous rejection of this cell line, mice were treated with anti-CD3. Once the tumors reached around 50 mm^3 size, mice were treated with C86 or C99 (i.p., 20 mg/kg) every day. […] C99, but not C86, suppresses murine HCC growth. Two independent experiments were performed with at least three replicates per experimental group. Unpaired t test, two-tailed. FIG. 28D: Tumors in (FIG. 28C) were harvested at endpoint, single-cell suspension generated, and AldeRed assay was performed along with surface staining with immune cell markers. Shown is the percentage of AldeRed-positive cells in nonleukocytes (CD45 negative, mostly tumor cells) under the different treatment conditions. Two independent experiments were performed with at least three replicates per experimental group. Unpaired t test, two-tailed. FIG. 28E: FCS base frequency of Macrophages (F4/80^+ cells) within CD45^+ leukocytes in tumor tissues from experiment outlined in (FIGS. 28C-28D). Two independent experiments were performed with at least three replicates per experimental group. Unpaired t test, two-tailed. FIG. 28F: Hepa1-6 tumor-bearing NU/J mice were treated with chlodronate liposomes (CloLipo) and/or C86/C99. CloLipo treatment suppresses tumor growth and renders tumors insensitive to C99. Two independent experiments were performed with at least three replicates per experimental group. Unpaired t test, two-tailed. FIG. 28G: The murine fibrosarcoma (FS) cell line was implanted subcutaneously into C57BL6/J mice. Mice were treated with 25 mg/kg of C-99 or vehicle everyday starting one day after tumor cell transplantation. *, P<0.05; **, P<0.01; ***, P<0.001; ns, not significant.
(§2) Cultured Huh7, Huh1, Hepa 1-6, Hep55, and FS (as indicated in figure legends) tumor cells were detached using 0.25% trypsin (Gibco, catalog #25200056), washed once with 1×PBS, and counted before implantation. 3~6×10^6 tumor cells were implanted subcutaneously (s.c.) into shaved flanks of recipient mice. Tumor dimensions were measured using a caliper starting at the day indicated in the accompanying figure legend and every two to three days thereafter; volume was calculated by using formula Length*Width^2/2. Tumor volumes of 2,000 mm^3, tumor length of 2 cm or tumor ulceration were used as endpoints for survival analyses.
To deplete T cells, 200 μg of mouse CD3-specific antibody (clone 17A2) was administered i.p. starting three days before tumor implantation and repeated every three to four days until mouse sacrifice. To deplete macrophages, 200 μL of clodronate liposome (CloLipo) or PBS-liposome (CtrlLipo) (both Liposoma) was administered i.p. starting three days prior to tumor implantation and repeated every four days until mouse sacrifice. Macrophage depletion efficacy in spleen and within tumors was confirmed by flow cytometry using canonical macrophage marker F4/80. […]

[6] = tested on: murine fibrosarcoma (FS) cell line; experiment: FS murine fibrosarcoma in C57BL6/J mice; type: in vivo, mouse; details: 25 mg/kg everyday
Description: FIGS. 28A-28G: C99 inhibits murine RALDH1 and suppresses murine HCC growth. FIG. 28A: AldeRed assay was performed on Hepa1-6 (murine HCC, left graph) and SNU398 (human HCC, right graph) cells with or without different concentration of C99 (x-axis). Shown is the percentage of AldeRed-positive cells (y-axis) after 24 hours exposure to C99. Murine RALDH1 is sensitive to C99. FIG. 28B: Hepa1-6 cells were treated with different concentrations of C99 in vitro and the number of viable cells were counted at different time points. […] FIG. 28C: C57BL6/J mice were implanted subcutaneously with Hepa1-6 cells and the tumor-bearing mice. To prevent spontaneous rejection of this cell line, mice were treated with anti-CD3. Once the tumors reached around 50 mm^3 size, mice were treated with C86 or C99 (i.p., 20 mg/kg) every day. […] C99, but not C86, suppresses murine HCC growth. Two independent experiments were performed with at least three replicates per experimental group. […]
as §2, with “3~6×10^6 tumor cells were implanted subcutaneously (s.c.) into shaved flanks of recipient mice.” left out, “Tumor volumes of 2,000 mm^3, tumor length of 2 cm or tumor ulceration were used as endpoints for survival analyses.” left out

Hepa 1-6 cells = experiment: In vitro proliferation and viability of Hepa 1-6 cells; type: cell-based, mouse; details: murine HCC cell line Hepa 1-6
[7] = intravenous administration, 2 mg/kg
[8] = male, CD-1, intravenous administration, 2 mg/kg
[9] = male, CD-1, oral administration, 10 mg/kg

SMILES: CS(=O)(=O)N1CCN(C(=O)c2cnc3ccc(F)cc3c2-c2ccc(C3(C#N)CC3)cc2)CC1 [Compound C-91, 1-(4-(6-fluoro-3-(4-(methylsulfonyl)piperazine-1-carbonyl)quinolin-4-yl)phenyl)cyclopropane-1-carbonitrile]
- AldeRed fluorescence ([1]; murine HCC cell line Hepa1-6, 24 hours): no change in AldeRed fluorescence; also recorded: failed to reduce AldeRed fluorescence
- RALDH activity, Aldered assay, in HCC cells (SNU398 human HCC cells; FIGS. 7-8): significantly reduced RALDH activity
- RALDH activity as detected by Aldered (Aldefluor) assay (SNU398 human HCC cells; SNU398 cells in vitro, 100 nM, DMSO control): abrogated
- HCC cell growth in vitro (SNU398 cells [2]; SNU398, 1, 10, 100 and 1000 nM): did not inhibit HCC cell growth in vitro
- cell death / cell viability in human HCC cell lines (SNU398 cells [2]; live cell counts over 3 days, 7-AAD staining 24 hours): not due to increased cell death or reduced cell viability
- signs of toxicity [3]: no signs of toxicity have been observed
- transcription of other RALDH isozymes (SNU398 cells [4]): did not lead to compensatory increases in transcription
- AUC0-∞ [5, 7]: 1830 ng·h/mL
- Cmax [5, 7]: 1997 ng/mL
- Vss [5, 7]: 1.4 L/kg
- AUC0-∞ ([5]; oral administration, 10 mg/kg): 6980 ng·h/mL
- Cmax ([5]; oral administration, 10 mg/kg): 1530 ng/mL
- F ([5]; oral administration, 10 mg/kg): 76%

- IC50 relative to C86 (human RALDH isozymes): significantly greater than that of C86
- AUC(0-inf) [5, 8]: 37 ng·h/mL
- half-life [5, 8]: 6 min
- clearance ([5]; male, CD-1, intravenous administration, 2 mg/kg, read-out: CLp): 887 mL/min/kg
- Cmax ([5]; male, CD-1, intravenous administration, 2 mg/kg, read-out: Cmax): 117 ng/mL
- Vd ([5]; male, CD-1, intravenous administration, 2 mg/kg, read-out: Vss): 2.7 L/kg
- AUC(0-inf) [5, 9]: 11 ng·h/mL
- half-life [5, 9]: 30 min
- Cmax ([5]; male, CD-1, oral administration, 10 mg/kg, read-out: Cmax): 16 ng/mL
- F ([5]; oral administration, 10 mg/kg): 6.3%
SMILES: C=CS(=O)(=O)N1CCN(c2c(C(=O)N3CCN(S(C)(=O)=O)CC3)cnc3ccc(F)cc23)CC1 [Compound C-99, (6-fluoro-4-(4-(vinylsulfonyl)piperazin-1-yl)quinolin-3-yl)(4-(methylsulfonyl)piperazin-1-yl)methanone]
- RALDH1 activity (AldeRed-positive cells) ([1]; murine HCC cell line, 24 hours exposure): suppressed RALDH1 activity
- sensitivity of TAM-depleted tumors to treatment (Hepa 1-6 tumors; Hepa 1-6, CloLipo-treated): insensitive to C99 treatment
- tumor growth in vivo (Hepa 1-6 tumors; Hepa 1-6 in C57BL6/J mice treated with anti-CD3, i.p., 20 mg/kg every day): significantly suppressed tumor growth in vivo
- frequency of TAMs within the TME (Hepa 1-6 tumors; Hepa 1-6 tumors at endpoint): reduced
- AldeRed activity in tumor cells (Hepa 1-6 tumors; Hepa 1-6 tumors at endpoint, CD45 negative cells): reduced AldeRed activity in tumor cells
- fibrosarcoma growth [6]: did not suppress fibrosarcoma growth
- concentration range suppressing RALDH1 activity (SNU398 human HCC cells; AldeRed assay, FIG. 28A and FIG. 20A): micromolar
- RALDH1 activity (AldeRed-positive cells) (SNU398 human HCC cells; human HCC cell line, 24 hours exposure): suppressed RALDH1 activity
- proliferation or viability in vitro (Hepa 1-6 cells): did not reduce proliferation or viability
